Experimental data taken from ChEMBL document CHEMBL1201861, “Genomics of Drug Sensitity in Cancer screening data, Wellcome Trust Sanger Institute”.

Legend:
Assay in all cases: cells
Assay type in all cases: functional, cell-based, Homo sapiens
MKN-7 = details: Homo sapiens, MKN-7;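 note: growth inhibition of MKN-7 cells, read out with a cell viability assay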
Description: SANGER: Inhibition of human MKN7 cell growth in a cell viability assay.

LB831-BLC = details: Homo sapiens, LB831-BLC;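 note: growth inhibition of LB831-BLC cells, read out with a cell viability assay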
Description: SANGER: Inhibition of human LB831-BLC cell growth in a cell viability assay.

OAW-28 = details: Homo sapiens, OAW-28;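 note: growth inhibition of OAW-28 cells, read out with a cell viability assay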
Description: SANGER: Inhibition of human OAW-28 cell growth in a cell viability assay.

Huh-7 = details: Homo sapiens, Huh-7;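 note: HuH-7 cell growth inhibition, read out with a cell viability assay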
Description: SANGER: Inhibition of human HuH-7 cell growth in a cell viability assay.

T98G = details: Homo sapiens, T98G;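 note: growth inhibition of T98G cells, read out by a cell viability assay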
Description: SANGER: Inhibition of human T98G cell growth in a cell viability assay.

HSC-4 = details: Homo sapiens, HSC-4;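 note: growth inhibition of human HSC-4 cells, read out with a cell viability assay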
Description: SANGER: Inhibition of human HSC-4 cell growth in a cell viability assay.

SNU-C2B = details: Homo sapiens, SNU-C2B;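 note: cell viability readout used to measure compound-driven suppression of SNU-C2B cell proliferation, IC50 marking half-maximal growth inhibition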
Description: SANGER: Inhibition of human SNU-C2B cell growth in a cell viability assay.

GCIY = details: Homo sapiens, GCIY;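 note: growth inhibition of the human GCIY cell line, read out by a cell viability assay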
Description: SANGER: Inhibition of human GCIY cell growth in a cell viability assay.

CCRF-CEM = details: Homo sapiens, CCRF-CEM;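 note: inhibition of CCRF-CEM cell growth, measured by a cell viability assay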
Description: SANGER: Inhibition of human CCRF-CEM cell growth in a cell viability assay.

J82 = details: Homo sapiens, J82;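 note: growth inhibition of J82 cells, read out with a cell viability assay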
Description: SANGER: Inhibition of human J82 cell growth in a cell viability assay.

769-P = details: Homo sapiens, 769-P
Description: SANGER: Inhibition of human 769-P cell growth in a cell viability assay.

LXF-289 cell line = details: Homo sapiens, LXF-289
Description: SANGER: Inhibition of human LXF-289 cell growth in a cell viability assay.

PANC-08-13 = details: Homo sapiens, PANC-08-13;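 note: cell growth inhibition, measured with a cell viability assay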
Description: SANGER: Inhibition of human PANC-08-13 cell growth in a cell viability assay.

SW1990 = details: Homo sapiens, SW1990;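 note: cell growth inhibition determined with a viability assay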
Description: SANGER: Inhibition of human SW1990 cell growth in a cell viability assay.

DK-MG = details: Homo sapiens, DK-MG;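 note: growth inhibition of DK-MG cells, read out with a cell viability assay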
Description: SANGER: Inhibition of human DK-MG cell growth in a cell viability assay.

HuO9 = details: Homo sapiens, HuO9;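 note: growth inhibition of HuO9 cells, read out with a cell viability assay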
Description: SANGER: Inhibition of human HuO9 cell growth in a cell viability assay.

SNU-5 = details: Homo sapiens, SNU-5;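 note: cell viability readout used to measure growth inhibition in human NCI-SNU-5 cells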
Description: SANGER: Inhibition of human NCI-SNU-5 cell growth in a cell viability assay.

EFO-21 = details: Homo sapiens, EFO-21;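 note: growth inhibition of EFO-21 cells measured with a viability assay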
Description: SANGER: Inhibition of human EFO-21 cell growth in a cell viability assay.

Kasumi 1 = details: Homo sapiens, Kasumi 1;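 note: growth inhibition of human Kasumi-1 cells, read out by a cell viability assay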
Description: SANGER: Inhibition of human KASUMI-1 cell growth in a cell viability assay.

LB647-SCLC = details: Homo sapiens, LB647-SCLC;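 note: cell growth inhibition, read out by a viability assay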
Description: SANGER: Inhibition of human LB647-SCLC cell growth in a cell viability assay.

NCI-H2347 = details: Homo sapiens, NCI-H2347;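 note: growth inhibition of the cell line, read out with a cell viability assay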
Description: SANGER: Inhibition of human NCI-H2347 cell growth in a cell viability assay.

MKN-45 = details: Homo sapiens, MKN-45;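 note: growth inhibition of human MKN-45 cells, measured with a cell viability assay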
Description: SANGER: Inhibition of human MKN45 cell growth in a cell viability assay.

NEC8 = details: Homo sapiens, NEC8;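 note: growth inhibition of human NEC8 cells, read out by a cell viability assay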
Description: SANGER: Inhibition of human NEC8 cell growth in a cell viability assay.

LOUCY = details: Homo sapiens, LOUCY;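 note: growth inhibition of human LOUCY cells, read out with a cell viability assay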
Description: SANGER: Inhibition of human LOUCY cell growth in a cell viability assay.

NCI-H23 = details: Homo sapiens, NCI-H23
Description: SANGER: Inhibition of human NCI-H23 cell growth in a cell viability assay.

SH-4 = details: Homo sapiens, SH-4;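 note: growth inhibition of SH-4 cells, read out with a cell viability assay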
Description: SANGER: Inhibition of human SH-4 cell growth in a cell viability assay.

U-698-M = details: Homo sapiens, U-698-M
Description: SANGER: Inhibition of human U-698-M cell growth in a cell viability assay.

NB13 = details: Homo sapiens, NB13;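 note: cell viability readout measuring growth inhibition of human NB13 cells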
Description: SANGER: Inhibition of human NB13 cell growth in a cell viability assay.

LK-2 = details: Homo sapiens, LK-2;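 note: growth inhibition of LK-2 cells, read out with a viability assay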
Description: SANGER: Inhibition of human LK-2 cell growth in a cell viability assay.

COLO-320-HSR = details: Homo sapiens, COLO-320-HSR;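 note: growth inhibition of COLO-320-HSR cells, determined with a cell viability assay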
Description: SANGER: Inhibition of human COLO-320-HSR cell growth in a cell viability assay.

MEL-HO = details: Homo sapiens, MEL-HO
Description: SANGER: Inhibition of human MEL-HO cell growth in a cell viability assay.

MKN-1 = details: Homo sapiens, MKN-1;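 note: growth inhibition of human MKN1 cells, read out by a cell viability measurement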
Description: SANGER: Inhibition of human MKN1 cell growth in a cell viability assay.

BOKU = details: Homo sapiens, BOKU;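 note: growth inhibition of the human BOKU cell line, read out by a cell viability assay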
Description: SANGER: Inhibition of human BOKU cell growth in a cell viability assay.

TE-15 = details: Homo sapiens, TE-15;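 note: cell viability readout of growth inhibition in TE-15 cells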
Description: SANGER: Inhibition of human TE-15 cell growth in a cell viability assay.

ESS-1 = details: Homo sapiens, ESS-1;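 note: growth inhibition of human ESS-1 cells, read out by a cell viability assay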
Description: SANGER: Inhibition of human ESS-1 cell growth in a cell viability assay.

NCI-H1155 = details: Homo sapiens, NCI-H1155;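 note: cell growth inhibition measured by a viability assay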
Description: SANGER: Inhibition of human NCI-H1155 cell growth in a cell viability assay.

TGBC1TKB = details: Homo sapiens, TGBC1TKB;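 note: growth inhibition of TGBC1TKB cells, read out by a cell viability assay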
Description: SANGER: Inhibition of human TGBC1TKB cell growth in a cell viability assay.

ECC4 = details: Homo sapiens, ECC4;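 note: growth inhibition of ECC4 cells, read out with a cell viability assay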
Description: SANGER: Inhibition of human ECC4 cell growth in a cell viability assay.

EFM-19 = details: Homo sapiens, EFM-19;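 note: growth inhibition of human EFM-19 cells, measured in a cell viability assay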
Description: SANGER: Inhibition of human EFM-19 cell growth in a cell viability assay.

SW837 = details: Homo sapiens, SW837;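 note: growth inhibition of SW837 cells, determined with a cell viability assay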
Description: SANGER: Inhibition of human SW837 cell growth in a cell viability assay.

D-336MG = details: Homo sapiens, D-336MG
Description: SANGER: Inhibition of human D-336MG cell growth in a cell viability assay.

LAN-6 = details: Homo sapiens, LAN-6;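 note: growth inhibition of LAN-6 cells, determined with a cell viability assay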
Description: SANGER: Inhibition of human LAN-6 cell growth in a cell viability assay.

LB996-RCC = details: Homo sapiens, LB996-RCC
Description: SANGER: Inhibition of human LB996-RCC cell growth in a cell viability assay.

MDA-MB-134-VI = details: Homo sapiens, MDA-MB-134-VI
Description: SANGER: Inhibition of human MDA-MB-134-VI cell growth in a cell viability assay.

5637 = details: Homo sapiens
Description: SANGER: Inhibition of human 5637 cell growth in a cell viability assay.

SAOS-2 = details: Homo sapiens, SAOS-2;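 note: growth inhibition of human Saos-2 cells determined by a cell viability assay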
Description: SANGER: Inhibition of human Saos-2 cell growth in a cell viability assay.

BB30-HNC = details: Homo sapiens, BB30-HNC;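 note: growth inhibition of the cultured cell line, read out by a cell viability assay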
Description: SANGER: Inhibition of human BB30-HNC cell growth in a cell viability assay.

NCI-H2029 = details: Homo sapiens, NCI-H2029;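 note: Read-out is a viability assay on the cultured cells, and IC50 is the concentration that suppresses cell growth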
Description: SANGER: Inhibition of human NCI-H2029 cell growth in a cell viability assay.

SMILES: N#Cc1c(O)c2c(-c3ccc(-c4ccccc4O)cc3)csc2[nH]c1=O
- IC50 (MKN-7): > 1.02 µM
- IC50 (LB831-BLC): > 1.02 µM
- IC50 (OAW-28): > 1.02 µM
- IC50 (Huh-7): > 1.02 µM
- IC50 (T98G): > 1.02 µM
- IC50 (HSC-4): > 1.02 µM
- IC50 (SNU-C2B): > 1.02 µM
- IC50 (GCIY): > 1.02 µM
- IC50 (CCRF-CEM): 0.146 µM
- IC50 (J82): > 1.02 µM
- IC50 (769-P): > 1.02 µM
- IC50 (LXF-289 cell line): > 1.02 µM
- IC50 (PANC-08-13): > 1.02 µM
- IC50 (SW1990): > 1.02 µM
- IC50 (DK-MG): > 1.02 µM
- IC50 (HuO9): > 1.02 µM
- IC50 (SNU-5): 0.944 µM
- IC50 (EFO-21): > 1.02 µM
- IC50 (Kasumi 1): 0.0418 µM
- IC50 (LB647-SCLC): 0.622 µM
- IC50 (NCI-H2347): > 1.02 µM
- IC50 (MKN-45): > 1.02 µM
- IC50 (NEC8): 0.48 µM
- IC50 (LOUCY): 0.0964 µM
- IC50 (NCI-H23): > 1.02 µM
- IC50 (SH-4): > 1.02 µM
- IC50 (U-698-M): 0.219 µM
- IC50 (NB13): > 1.02 µM
- IC50 (LK-2): > 1.02 µM
- IC50 (COLO-320-HSR): > 1.02 µM
- IC50 (MEL-HO): > 1.02 µM
- IC50 (MKN-1): > 1.02 µM
- IC50 (BOKU): > 1.02 µM
- IC50 (TE-15): > 1.02 µM
- IC50 (ESS-1): > 1.02 µM
- IC50 (NCI-H1155): > 1.02 µM
- IC50 (TGBC1TKB): > 1.02 µM
- IC50 (ECC4): 0.509 µM
- IC50 (EFM-19): > 1.02 µM
- IC50 (SW837): > 1.02 µM
- IC50 (D-336MG): > 1.02 µM
- IC50 (LAN-6): > 1.02 µM
- IC50 (LB996-RCC): > 1.02 µM
- IC50 (MDA-MB-134-VI): > 1.02 µM
- IC50 5637: > 1.02 µM
- IC50 (SAOS-2): > 1.02 µM
- IC50 (BB30-HNC): > 1.02 µM

SMILES: CN(C)C(=N)NC(=N)N [METFORMIN]
- IC50 (LB831-BLC): > 20000 µM
- IC50 (OAW-28): > 20000 µM
- IC50 (Huh-7): 15500 µM
- IC50 (T98G): > 20000 µM
- IC50 (HSC-4): 5480 µM
- IC50 (SNU-C2B): > 20000 µM
- IC50 (GCIY): > 20000 µM
- IC50 (CCRF-CEM): 2720 µM
- IC50 (J82): 12900 µM
- IC50 (769-P): 6920 µM
- IC50 (LXF-289 cell line): 12000 µM
- IC50 (PANC-08-13): > 20000 µM
- IC50 (SNU-5): 3700 µM
- IC50 (EFO-21): > 20000 µM
- IC50 (Kasumi 1): 378 µM
- IC50 (MKN-45): > 20000 µM
- IC50 (NEC8): 16000 µM
- IC50 (NCI-H23): 17100 µM
- IC50 (SH-4): > 20000 µM
- IC50 (LK-2): 9240 µM
- IC50 (COLO-320-HSR): > 20000 µM
- IC50 (MEL-HO): 8840 µM
- IC50 (ESS-1): > 20000 µM
- IC50 (NCI-H1155): 17700 µM
- IC50 (TGBC1TKB): > 20000 µM
- IC50 (SW837): > 20000 µM
- IC50 5637: 5300 µM
- IC50 (BB30-HNC): 10800 µM
- IC50 (NCI-H2029): 14800 µM

SMILES: CC(=O)O[C@H]1C(=O)[C@@]2(C)[C@H]([C@H](OC(=O)c3ccccc3)[C@]3(O)C[C@H](OC(=O)[C@H](O)[C@@H](NC(=O)c4ccccc4)c4ccccc4)C(C)=C1C3(C)C)[C@]1(OC(C)=O)CO[C@@H]1C[C@@H]2O [PACLITAXEL]
- IC50 (LB831-BLC): 0.0248 µM
- IC50 (SNU-C2B): 0.015 µM
- IC50 (GCIY): > 0.102 µM
- IC50 (CCRF-CEM): 0.00871 µM
- IC50 (LXF-289 cell line): 0.00818 µM
- IC50 (SNU-5): 0.017 µM
- IC50 (Kasumi 1): > 0.102 µM
- IC50 (LB647-SCLC): 0.0105 µM
- IC50 (NEC8): 0.0529 µM
- IC50 (LOUCY): 0.00775 µM
- IC50 (NCI-H23): > 0.102 µM
- IC50 (SH-4): 0.0189 µM
- IC50 (U-698-M): > 0.102 µM
- IC50 (NB13): 0.00491 µM
- IC50 (COLO-320-HSR): > 0.102 µM
- IC50 (BOKU): > 0.102 µM
- IC50 (TE-15): 0.000287 µM
- IC50 (NCI-H1155): > 0.102 µM
- IC50 (TGBC1TKB): 0.0175 µM
- IC50 (ECC4): > 0.102 µM
- IC50 (D-336MG): > 0.102 µM
- IC50 (LAN-6): > 0.102 µM
- IC50 (LB996-RCC): 0.0771 µM
- IC50 (MDA-MB-134-VI): > 0.102 µM
- IC50 (BB30-HNC): 0.00314 µM

SMILES: N[C@@H](CSC(c1ccccc1)(c1ccccc1)c1ccccc1)C(=O)O [S-TRITYL-L-CYSTEINE]
- IC50 (LB831-BLC): > 5.12 µM
- IC50 (SNU-C2B): 1.28 µM
- IC50 (GCIY): 1.82 µM
- IC50 (CCRF-CEM): 2.11 µM
- IC50 (LXF-289 cell line): 0.977 µM
- IC50 (SNU-5): > 5.12 µM
- IC50 (Kasumi 1): > 5.12 µM
- IC50 (LB647-SCLC): > 5.12 µM
- IC50 (NEC8): 2.69 µM
- IC50 (LOUCY): 0.48 µM
- IC50 (NCI-H23): > 5.12 µM
- IC50 (SH-4): 2.31 µM
- IC50 (U-698-M): > 5.12 µM
- IC50 (NB13): 1.99 µM
- IC50 (COLO-320-HSR): 0.894 µM
- IC50 (BOKU): > 5.12 µM
- IC50 (TE-15): 1.02 µM
- IC50 (NCI-H1155): 3.8 µM
- IC50 (TGBC1TKB): 2.42 µM
- IC50 (ECC4): > 5.12 µM
- IC50 (D-336MG): > 5.12 µM
- IC50 (LAN-6): 3.69 µM
- IC50 (LB996-RCC): 2.9 µM
- IC50 (MDA-MB-134-VI): > 5.12 µM
- IC50 (BB30-HNC): 1.19 µM
